According to publication PMC12257413, “Discovery of a Novel sp^3‑Rich M1 Positive Allosteric Modulators (PAMs) Chemotype via Scaffold Hopping” (ACS Medicinal Chemistry Letters, 2025):
Where a chain is given by its changes, count along the chain named.

What follows are compounds tested against T1, rat muscarinic receptor subtype 1 (M1) (Rattus norvegicus, UniProt P08482) (assay: Calcium mobilization assay in rM1-CHO cells, PAM activity with EC20 acetylcholine). Settings: not given.
T1 construct: expressed in transfected cells
T1 sequence (P08482 1-460): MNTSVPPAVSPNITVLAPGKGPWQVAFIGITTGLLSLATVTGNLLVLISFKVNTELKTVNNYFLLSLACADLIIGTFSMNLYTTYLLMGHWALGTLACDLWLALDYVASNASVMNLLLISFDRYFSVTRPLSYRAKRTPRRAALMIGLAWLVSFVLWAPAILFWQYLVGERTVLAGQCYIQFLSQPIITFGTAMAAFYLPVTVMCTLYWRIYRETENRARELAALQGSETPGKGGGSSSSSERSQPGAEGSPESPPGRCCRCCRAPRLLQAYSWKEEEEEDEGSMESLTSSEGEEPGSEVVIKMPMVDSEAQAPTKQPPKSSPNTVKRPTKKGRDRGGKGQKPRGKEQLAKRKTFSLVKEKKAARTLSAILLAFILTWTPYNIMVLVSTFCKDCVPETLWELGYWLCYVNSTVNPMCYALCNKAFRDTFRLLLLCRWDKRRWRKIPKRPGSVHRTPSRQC
Type: cell-based
Method: (§1) page 2: Procedures for Biological Experiments Calcium mobilization assays: To measure the functional activity of positive allosteric modulator (PAM) compounds in a cellular assay, human or rat muscarinic receptor subtype 1 (M1) was stably expressed in the Chinese hamster ovary (CHO) cells to evoke an increase in intracellular calcium to an EC20 concentration of acetylcholine (ACh) agonist. The stable M1-CHO cells were cultured in F12 medium containing 10% fetal bovine serum, 20 mM HEPES, 100 units/mL antibiotics/antimycotic, 0.5 mg/ml G418. All reagents used were from Life Technologies (Carlsbad, CA) unless otherwise noted. Briefly, the day before the assay, stable M1-CHO cells (15,000 cells/20 μL/well) were plated in black-walled, clear-bottomed, 384 well plates (Greiner Bio-One, Monroe, NC) in the culture medium without G418, and then incubated overnight at 37 °C in the presence of 5% CO2. The next day, calcium assay buffer (Hank’s balanced salt solution (HBSS), 20 mM HEPES, 2.5 mM Probenecid, 4.16 mM sodium bicarbonate (Sigma-Aldrich, St. Louis, MO) was prepared to dilute […] calcium indicator dye. […] curves in DMSO using the Bravo Liquid Handler (Agilent, Santa Clara, CA), transferred to a 384 well daughter plates using an Echo acoustic liquid handler (Beckman Coulter, Indianapolis, Indiana), and diluted in assay Buffer to a 2X final concentration. The agonist plates were prepared using acetylcholine (ACh, Sigma-Aldrich, St. Louis, MO) concentrations for the EC20 and ECMAX responses by diluting in assay buffer to a 5X final concentration. The 2X dye solution (2.3 µM) was prepared by mixing a 2.3 mM Fluo-4-AM stock in DMSO with 10% (w/v) pluronic acid F- 127 in a 1:1 ratio in assay buffer. Using a microplate washer (BioTek, Winooski, VT), cells were washed with assay buffer for 3 times to remove medium. After the final wash, 20 μL of assay buffer remained in the cell plates. Immediately, 20 μL of the 2X dye solution (final 1.15 µM) was added to each well of the cell plate using a Multidrop Combi dispenser (Thermo Fisher, Waltham, MA). After cells were incubated with the dye solutions for 45 min at 37 °C in the presence of 5% CO2, the dye solutions were removed and replaced with assay buffer using a microplate washer, leaving 20 μL of assay buffer in the cell plate. The compound, agonist, and cell plates were placed inside the Functional Drug Screening System uCell (FDSS uCell, Hamamatsu, Japan) to measure the calcium flux. The triple add protocol was used to measure Ca kinetics; Compound, ACh for EC20, and ACh for ECMAX adds in an order. Briefly, after establishment of a fluorescence baseline S2 page 3: for 2 seconds (excitation, 480 nm; emission, 530 nm), first add occurred by adding 20 µL of test compound to the cells, and the response was measured for 140 seconds. This is followed by second add; 10 µL (5X) of an EC20 concentration of ACh agonist was added to the cells, and the response of the cells was measured for 125 seconds. Immediately, the third add occurred by adding 12 ul assay buffer or 5X of an EC max concentration of ACh and the response of the cells was measured for 90 seconds. Assay buffer was added to the wells that incubated with compounds followed by EC20 concentration of ACh. Agonists containing ECmax concentration of ACh were added to the wells that incubated with DMSO and assay buffer from the 1st and 2nd adds to measure maximum Ca responses (ECmax). Calcium fluorescence was recorded as fold over basal fluorescence and raw data were normalized to the maximal response to ACh agonist. […]

SMILES	rM1 %ACh Max ± SEM	rM1 pEC50 ± SEM
Cn1cc(-c2ccc(Cc3cc(C(=O)N[C@H]4CCOC[C@@H]4O)nn3Cc3ccccc3)cc2)cn1 [17f]	57 ± 4.6 %ACh Max	–
Cn1cc(-c2ccc(Cc3cc(C(=O)N[C@H]4CCC[C@@H]4O)nn3-c3ccccc3)cc2)cn1 [17c]	69 ± 4.3 %ACh Max	–
Cn1cc(-c2ccc(Cc3cc(C(=O)NC4CC5(COC5)C4)nn3C3CCCC3)cc2)cn1 [17p]	76 ± 4.2 %ACh Max	–
Cn1cc(-c2ccc(Cc3cc(C(=O)N[C@H]4CC[C@@H]4O)nn3-c3ccccc3)cc2)cn1 [17d]	51 ± 3.9 %ACh Max	–
Cn1cc(-c2ccc(Cc3cc(C(=O)N[C@H]4CCCC[C@@H]4O)nn3-c3ccccc3)cc2)cn1 [17a]	80 ± 3.8 %ACh Max	–
Cn1cc(-c2ccc(Cc3cc(C(=O)N[C@H]4CCCCC[C@@H]4O)nn3-c3ccccc3)cc2)cn1 [17e]	80 ± 3.2 %ACh Max	–

More lines, now with the values ahead:

rM1 %ACh Max ± SEM	rM1 pEC50 ± SEM	SMILES
75 ± 7.6 %ACh Max	–	Cn1cc(-c2ccc(Cc3cc(C(=O)N[C@H]4CCOC[C@@H]4O)nn3C3CCOC3)cc2)cn1 (stereo partly shown) [17j]
84 ± 4.6 %ACh Max	–	Cn1cc(-c2ccc(Cc3cc(C(=O)N[C@H]4CCOC[C@@H]4O)nn3-c3ccccc3)cc2)cn1 [17b]
73 ± 5.3 %ACh Max	–	Cn1cc(-c2ccc(Cc3cc(C(=O)N[C@H]4CCC[C@@H]4O)nn3C3CCCC3)cc2)cn1 [17m]
–	Inactive (n = 3) Inactive (n = 3)	CC(C)n1nc(C(=O)N[C@H]2CCOC[C@@H]2O)cc1Cc1ccc(-c2cnn(C)c2)cc1 [17i]
72 ± 3.8 %ACh Max	–	Cn1cc(-c2ccc(Cc3cc(C(=O)N[C@@H]4CCOC[C@H]4F)nn3C3CCCC3)cc2)cn1 [17n]
81 ± 3.8 %ACh Max	–	Cn1cc(-c2ccc(Cc3cc(C(=O)N[C@H]4CCCCC[C@@H]4O)nn3C3CCCC3)cc2)cn1 [17l]
50 ± 3.7 %ACh Max	–	Cn1cc(-c2ccc(Cc3cc(C(=O)NC4CC(F)C4)nn3C3CCCC3)cc2)cn1 (stereo not shown) [17o]
80 ± 7.1 %ACh Max	–	Cn1cc(-c2ccc(Cc3cc(C(=O)N[C@H]4CCOC[C@@H]4O)nn3C3CCCCC3)cc2)cn1 [17h]

Same assay, conditions: read-out: rM1 pEC50 ± SEM (converted)

SMILES	EC50
Cn1cc(-c2ccc(Cc3cc(C(=O)N[C@H]4CCOC[C@@H]4O)nn3Cc3ccccc3)cc2)cn1 [17f]	> 10 µM
Cn1cc(-c2ccc(Cc3cc(C(=O)N[C@H]4CCC[C@@H]4O)nn3-c3ccccc3)cc2)cn1 [17c]	> 10 µM
CNC(=O)c1ccc(Cc2cc(C(=O)N[C@H]3CCOC[C@@H]3O)nn2C2CCCC2)cc1 [compound 21]	0.794 µM
Cn1cc(-c2ccc(Cc3cc(C(=O)NC4CC5(COC5)C4)nn3C3CCCC3)cc2)cn1 [17p]	1.91 µM
Cn1cc(-c2ccc(Cc3cc(C(=O)N[C@H]4CC[C@@H]4O)nn3-c3ccccc3)cc2)cn1 [17d]	> 10 µM
Cn1cc(-c2ccc(Cc3cc(C(=O)N[C@H]4CCCC[C@@H]4O)nn3-c3ccccc3)cc2)cn1 [17a]	2.51 µM
Cn1cc(-c2ccc(Cc3cc(C(=O)N[C@H]4CCCCC[C@@H]4O)nn3-c3ccccc3)cc2)cn1 [17e]	3.47 µM

Other lines, results leading:

EC50	SMILES
0.562 µM	Cn1cc(-c2ccc(Cc3cc(C(=O)N[C@H]4CCOC[C@@H]4O)nn3C3CCOC3)cc2)cn1 (stereo partly shown) [17j]
1.2 µM	Cn1cc(-c2ccc(Cc3cc(C(=O)N[C@H]4CCOC[C@@H]4O)nn3-c3ccccc3)cc2)cn1 [17b]
1.58 µM	Cn1cc(-c2ccc(Cc3cc(C(=O)N[C@H]4CCC[C@@H]4O)nn3C3CCCC3)cc2)cn1 [17m]
4.17 µM	Cn1cc(-c2ccc(Cc3cc(C(=O)N[C@@H]4CCOC[C@H]4F)nn3C3CCCC3)cc2)cn1 [17n]
0.724 µM	Cn1cc(-c2ccc(Cc3cc(C(=O)N[C@H]4CCCCC[C@@H]4O)nn3C3CCCC3)cc2)cn1 [17l]
> 10 µM	Cn1cc(-c2ccc(Cc3cc(C(=O)NC4CC(F)C4)nn3C3CCCC3)cc2)cn1 (stereo not shown) [17o]
1.48 µM	Cn1cc(-c2ccc(Cc3cc(C(=O)N[C@H]4CCOC[C@@H]4O)nn3C3CCCCC3)cc2)cn1 [17h]

Each compound was assayed against T2, human muscarinic receptor subtype 1 (M1) (Homo sapiens, UniProt P11229) (assay: Calcium mobilization assay in hM1-CHO cells, PAM activity with EC20 acetylcholine). Settings: not given.
T2 sequence (P11229 1-460): T1 sequence (P08482 1-460) with V5A, S254T, S309P, K320R, G337A, V413I
Type: cell-based
Method: as §1

SMILES	hM1 %ACh Max ± SEM	hM1 pEC50 ± SEM
Cn1cc(-c2ccc(Cc3cc(C(=O)N[C@H]4CCC[C@@H]4O)nn3-c3ccccc3)cc2)cn1 [17c]	58 ± 3.0 %ACh Max	–
Cn1cc(-c2ccc(Cc3cc(C(=O)NC4CC5(COC5)C4)nn3C3CCCC3)cc2)cn1 [17p]	78 ± 8.8 %ACh Max	–
Cn1cc(-c2ccc(Cc3cc(C(=O)N[C@H]4CC[C@@H]4O)nn3-c3ccccc3)cc2)cn1 [17d]	48 ± 7.4 %ACh Max	–
Cn1cc(-c2ccc(Cc3cc(C(=O)N[C@H]4CCCC[C@@H]4O)nn3-c3ccccc3)cc2)cn1 [17a]	70 ± 1.5 %ACh Max	–
Cn1cc(-c2ccc(Cc3cc(C(=O)N[C@H]4CCCCC[C@@H]4O)nn3-c3ccccc3)cc2)cn1 [17e]	72 ± 2.6 %ACh Max	–

Next, values leading:

hM1 %ACh Max ± SEM	hM1 pEC50 ± SEM	SMILES
71 ± 4.1 %ACh Max	–	Cn1cc(-c2ccc(Cc3cc(C(=O)N[C@H]4CCOC[C@@H]4O)nn3C3CCOC3)cc2)cn1 (stereo partly shown) [17j]
74 ± 0.6 %ACh Max	–	Cn1cc(-c2ccc(Cc3cc(C(=O)N[C@H]4CCOC[C@@H]4O)nn3-c3ccccc3)cc2)cn1 [17b]
76 ± 10 %ACh Max	–	Cn1cc(-c2ccc(Cc3cc(C(=O)N[C@H]4CCC[C@@H]4O)nn3C3CCCC3)cc2)cn1 [17m]
–	Inactive (n = 3) Inactive (n = 3)	CC(C)n1nc(C(=O)N[C@H]2CCOC[C@@H]2O)cc1Cc1ccc(-c2cnn(C)c2)cc1 [17i]
67 ± 2.5 %ACh Max	–	Cn1cc(-c2ccc(Cc3cc(C(=O)N[C@@H]4CCOC[C@H]4F)nn3C3CCCC3)cc2)cn1 [17n]
79 ± 4.4 %ACh Max	–	Cn1cc(-c2ccc(Cc3cc(C(=O)N[C@H]4CCCCC[C@@H]4O)nn3C3CCCC3)cc2)cn1 [17l]
46 ± 1.1 %ACh Max	–	Cn1cc(-c2ccc(Cc3cc(C(=O)NC4CC(F)C4)nn3C3CCCC3)cc2)cn1 (stereo not shown) [17o]
73 ± 3.1 %ACh Max	–	Cn1cc(-c2ccc(Cc3cc(C(=O)N[C@H]4CCOC[C@@H]4O)nn3C3CCCCC3)cc2)cn1 [17h]

Same assay, conditions: read-out: hM1 pEC50 ± SEM (converted)

SMILES	EC50
Cn1cc(-c2ccc(Cc3cc(C(=O)N[C@H]4CCOC[C@@H]4O)nn3Cc3ccccc3)cc2)cn1 [17f]	> 10 µM
Cn1cc(-c2ccc(Cc3cc(C(=O)N[C@H]4CCC[C@@H]4O)nn3-c3ccccc3)cc2)cn1 [17c]	> 10 µM
CNC(=O)c1ccc(Cc2cc(C(=O)N[C@H]3CCOC[C@@H]3O)nn2C2CCCC2)cc1 [compound 21]	1.26 µM
Cn1cc(-c2ccc(Cc3cc(C(=O)NC4CC5(COC5)C4)nn3C3CCCC3)cc2)cn1 [17p]	2.95 µM
Cn1cc(-c2ccc(Cc3cc(C(=O)N[C@H]4CC[C@@H]4O)nn3-c3ccccc3)cc2)cn1 [17d]	> 10 µM
Cn1cc(-c2ccc(Cc3cc(C(=O)N[C@H]4CCCC[C@@H]4O)nn3-c3ccccc3)cc2)cn1 [17a]	3.02 µM
Cn1cc(-c2ccc(Cc3cc(C(=O)N[C@H]4CCCCC[C@@H]4O)nn3-c3ccccc3)cc2)cn1 [17e]	4.57 µM

Now from value to compound:

EC50	SMILES
1.2 µM	Cn1cc(-c2ccc(Cc3cc(C(=O)N[C@H]4CCOC[C@@H]4O)nn3C3CCOC3)cc2)cn1 (stereo partly shown) [17j]
2 µM	Cn1cc(-c2ccc(Cc3cc(C(=O)N[C@H]4CCOC[C@@H]4O)nn3-c3ccccc3)cc2)cn1 [17b]
2.14 µM	Cn1cc(-c2ccc(Cc3cc(C(=O)N[C@H]4CCC[C@@H]4O)nn3C3CCCC3)cc2)cn1 [17m]
6.61 µM	Cn1cc(-c2ccc(Cc3cc(C(=O)N[C@@H]4CCOC[C@H]4F)nn3C3CCCC3)cc2)cn1 [17n]
0.661 µM	Cn1cc(-c2ccc(Cc3cc(C(=O)N[C@H]4CCCCC[C@@H]4O)nn3C3CCCC3)cc2)cn1 [17l]
> 10 µM	Cn1cc(-c2ccc(Cc3cc(C(=O)NC4CC(F)C4)nn3C3CCCC3)cc2)cn1 (stereo not shown) [17o]
4.9 µM	Cn1cc(-c2ccc(Cc3cc(C(=O)N[C@H]4CCOC[C@@H]4O)nn3C3CCCCC3)cc2)cn1 [17h]
